In PubChem BioAssay AID248 (DTP/NCI, 2004):
Values joined by “and” are separate entries in the source; they are usually repeats but may differ in a detail not shown here. Equal entries are not always repeated. Toxic doses and inconclusive results are not listed. Square brackets hold non-standard residues; d marks the D form. Peptide text beside a SMILES is read from it. * marks the point of attachment. ξ: configuration not given here. ξE = NC(CCC(=O)O)C(=O)O; Cbz = O=C(OCc1ccccc1)*; Abu = CC[CH](N)C(=O)O; OBn = c1ccc(CO*)cc1

System: L1210 leukemia ip in BDF1 mice, survival T/C
Assay: NCI In Vivo Anticancer Drug Screen. Data for tumor model L1210 Leukemia (intraperitoneal) in B6D2F1 (BDF1) mice
Conditions: endpoint: mean survival time, higher = longer survival
How it was run: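 Tumor cells were implanted, animals were treated, and survival was followed. The result divides the treated measurement by the vehicle-control measurement.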

[1] = dose: 100.0 mg/kg/injection, schedule: Q01DX009 (ip), vehicle: Klucel (hydroxypropylcellulose) (HPC)
[2] = dose: 200.0 mg/kg/injection, schedule: Q01DX009 (ip), vehicle: Klucel (hydroxypropylcellulose) (HPC)
[3] = dose: 100.0 mg/kg/injection, schedule: Q01DX001 (ip), vehicle: saline
[4] = dose: 200.0 mg/kg/injection, schedule: Q01DX001 (ip), vehicle: saline
[5] = dose: 100.0 mg/kg/injection, schedule: Q04DX003 (ip), vehicle: Klucel (hydroxypropylcellulose) (HPC)
[6] = dose: 200.0 mg/kg/injection, schedule: Q04DX003 (ip), vehicle: Klucel (hydroxypropylcellulose) (HPC)

With `CCCCCCCCC(=O)N(C(C)C)C(C)C` the T/C (dose: 100.0 mg/kg/injection, schedule: Q01DX009 (ip), vehicle: carboxymethylcellulose (CMC)) was 93 % of control and 102 % of control, the T/C (dose: 100.0 mg/kg/injection, schedule: Q04DX002 (ip), vehicle: carboxymethylcellulose (CMC)) was 98 % of control and 101 % of control and the T/C (dose: 200.0 mg/kg/injection, schedule: Q01DX009 (ip), vehicle: carboxymethylcellulose (CMC)) was 93 % of control and 96 % of control. The T/C (dose: 200.0 mg/kg/injection, schedule: Q04DX002 (ip), vehicle: carboxymethylcellulose (CMC)) was 95 % of control and 92 % of control, the T/C (dose: 400.0 mg/kg/injection, schedule: Q01DX009 (ip), vehicle: carboxymethylcellulose (CMC)) was 92 % of control and the T/C (dose: 400.0 mg/kg/injection, schedule: Q04DX002 (ip), vehicle: carboxymethylcellulose (CMC)) was 87 % of control and 92 % of control.

`CCC(NC(=O)OCc1ccccc1)C(=O)NC(Cc1ccc(O)cc1)C(=O)OCc1ccccc1` (centres undefined) (Cbz-[Abu]-Tyr-OBn; configuration not given here) was tested, and the T/C [1] was 102 % of control, the T/C [2] was 91 % of control and the T/C (dose: 400.0 mg/kg/injection, schedule: Q01DX009 (ip), vehicle: Klucel (hydroxypropylcellulose) (HPC)) was 99 % of control.

With `COc1cc(C(O)c2nccc3cc(OC)c(OC)cc23)c([N+](=O)[O-])cc1OC` (centres undefined) the T/C (dose: 75.0 mg/kg/injection, schedule: Q01DX001 (ip), vehicle: saline) was 111 % of control, the T/C (dose: 150.0 mg/kg/injection, schedule: Q01DX001 (ip), vehicle: saline) was 106 % of control and the T/C (dose: 300.0 mg/kg/injection, schedule: Q01DX001 (ip), vehicle: saline) was 101 % of control.

`CC1(C)Cc2cccc(OC(=O)NO)c2O1` was tested, and the T/C (dose: 12.5 mg/kg/injection, schedule: Q01DX001 (ip), vehicle: Klucel (hydroxypropylcellulose) (HPC)) was 100 % of control, the T/C (dose: 25.0 mg/kg/injection, schedule: Q01DX001 (ip), vehicle: Klucel (hydroxypropylcellulose) (HPC)) was 96 % of control and the T/C (dose: 50.0 mg/kg/injection, schedule: Q01DX001 (ip), vehicle: Klucel (hydroxypropylcellulose) (HPC)) was 96 % of control.

`CCOC(=O)C1(NC(=O)N(CCCl)N=O)CCCCC1` was tested, and the T/C (dose: 16.0 mg/kg/injection, schedule: Q01DX001 (ip), vehicle: other) was 97 % of control, the T/C (dose: 31.0 mg/kg/injection, schedule: Q01DX001 (ip), vehicle: other) was 106 % of control and the T/C (dose: 125.0 mg/kg/injection, schedule: Q01DX001 (ip), vehicle: other) was 188 % of control and 220 % of control. The T/C (dose: 250.0 mg/kg/injection, schedule: Q01DX001 (ip), vehicle: other) was 296 % of control and 317 % of control, the T/C (dose: 375.0 mg/kg/injection, schedule: Q01DX001 (ip), vehicle: other) was 216 % of control and the T/C (dose: 500.0 mg/kg/injection, schedule: Q01DX001 (ip), vehicle: other) was 194 % of control and 322 % of control. The T/C (dose: 750.0 mg/kg/injection, schedule: Q01DX001 (ip), vehicle: other) was 331 % of control and the T/C (dose: 1000.0 mg/kg/injection, schedule: Q01DX001 (ip), vehicle: other) was 295 % of control.

For `CCOP(=O)(CSCCc1ccccc1)OCC`, the T/C (dose: 100.0 mg/kg/injection, schedule: Q04DX003 (ip), vehicle: saline) was 92 % of control and the T/C (dose: 200.0 mg/kg/injection, schedule: Q04DX003 (ip), vehicle: saline) was 103 % of control.

`CCC1(C)N=C(N)Nc2nc3ccccc3n21` (centres undefined) was tested, and the T/C [3] was 96 % of control and the T/C [4] was 94 % of control.

`O=C(Nc1cccc(Cl)c1)OCCN(CCOC(=O)Nc1cccc(Cl)c1)Cc1ccccc1` was tested, and the T/C [3] was 106 % of control, the T/C [4] was 95 % of control and the T/C (dose: 400.0 mg/kg/injection, schedule: Q01DX001 (ip), vehicle: saline) was 97 % of control.

For `O=C(O)CCC(NC(=O)CNC(=O)OCc1ccccc1)C(=O)O` (stereo not drawn) (Cbz-Gly-[ξE]-OH), the T/C (dose: 50.0 mg/kg/injection, schedule: Q01DX009 (ip), vehicle: Klucel (hydroxypropylcellulose) (HPC)) was 95 % of control, the T/C (dose: 50.0 mg/kg/injection, schedule: Q04DX003 (ip), vehicle: Klucel (hydroxypropylcellulose) (HPC)) was 92 % of control and the T/C [1] was 97 % of control. For the same compound, the T/C [5] was 96 % of control, the T/C [2] was 93 % of control and the T/C [6] was 93 % of control.

For `Cc1cc(C)c(CSC(=N)N)c(C)c1`, the T/C (dose: 25.0 mg/kg/injection, schedule: Q04DX002 (ip), vehicle: Klucel (hydroxypropylcellulose) (HPC)) was 88 % of control, the T/C (dose: 50.0 mg/kg/injection, schedule: Q04DX002 (ip), vehicle: Klucel (hydroxypropylcellulose) (HPC)) was 92 % of control and the T/C (dose: 100.0 mg/kg/injection, schedule: Q04DX002 (ip), vehicle: Klucel (hydroxypropylcellulose) (HPC)) was 100 % of control and 89 % of control.

`CC(=O)Oc1ccccc1C(C)=O` was tested, and the T/C [1] was 97 % of control, the T/C [5] was 96 % of control and the T/C [2] was 97 % of control. The T/C [6] was 98 % of control and the T/C (dose: 400.0 mg/kg/injection, schedule: Q04DX003 (ip), vehicle: Klucel (hydroxypropylcellulose) (HPC)) was 104 % of control.
